We go through 1 molecule from US20260306491A1, “EGFR INHIBITOR FOR TREATING CANCERS COMPRISING ATYPICAL EGFR MUTATIONS” (ORIC Pharmaceuticals, Inc., priority 2023, published 2026).

Holding throughout (assay): EGFR kinase activity (AQT0794 peptide, Sox fluorescence)
What all share (type): biochemical

The target of one experiment is T1, EGFR_d746-750 S768I (Homo sapiens, UniProt P00533, DEL746-750/S768I).
T1 construct: purchased SignalChem E10-122B3G
Particulars: 1 mM ATP, 2.0 nM enzyme, room temperature. As to the method:
(§1) Compound I was dissolved in DMSO to generate a 10 mM stock solution. Dosing solutions for biochemical assays were prepared by serial dilution in DMSO followed by dilution in assay buffers as described in the experimental procedures. Stock formulations were stored at −80° C. and dosing solutions were prepared for each experiment immediately prior to use.
(§2) Activity of human recombinant EGFR wildtype and mutant proteins was measured by the phosphorylation of a peptide substate via chelation-enhanced fluorescence using the sulfonamido-oxine (Sox) chromophore detection format. Compound I was solubilized in DMSO. 16-point half log titrations in 100% DMSO were carried out by a Bravo liquid handler (Agilent) in a 384-well polypropylene plate (Greiner Cat. #781201). Using the Bravo liquid handler, intermediate 1:10 dilutions in a 384-well polypropylene plate were created in assay buffer. For the enzymatic reactions, 5 μL from the intermediate compound dilution plate was transferred to a low volume 384 well, black flat-bottom polystyrene microplate (Greiner Cat. #784076). A separate plate was generated for each enzyme. Next, 5 μL of a 4× ATP/AQT0794 working solution was added to the assay plate. Finally, 10 μL of 2× enzyme was added to start the reactions. The plate was sealed with a PerkinElmer TopSeal-A Plus plate seal (Cat. #6050185) and read at excitation (360 nm) and emission (492 nm) in continuous kinetic mode every 2 minutes for 3 hours at room temperature. Reactions were performed in 50 mM HEPES, pH 7.5, 1 mM ATP, 1.0 mM DTT, 0.015% Brij-35, 0.01% BSA, 1.0 mM EGTA, 10 mM MgCl2, 10 μM EGFR peptide substrate probe from AssayQuant (Cat. #AQT0794) plus recombinant EGFR protein (Table 1). The final DMSO concentration was 2.5%.
(§3) Real-time continuous kinetic data were loaded into Dotmatics software where slopes were calculated, converted to % inhibitions and IC50s were generated using the four-parameter non-linear regression curve fit. Reactions lacking enzymes were used as 100% inhibition controls. After addition of recombinant EGFR and its substrates ATP and AQT0794, the activity of EGFR was measured by quantification of the phosphorylation of the AQT0794 peptide substate via chelation-enhanced fluorescence using the sulfonamido-oxine (Sox) chromophore detection format with diminishing signal indicative of inhibition of EGFR activity.

The target in the next experiment is T2, EGFR_L718Q (Homo sapiens, UniProt P00533, L718Q).
T2 construct: purchased SignalChem E10-122G2G
Particulars: 1 mM ATP, 2.0 nM enzyme, room temperature. As for the experimental part: as §1, §2, §3

In a further experiment the target is T3, EGFR_L792H (Homo sapiens, UniProt P00533, L792H).
T3 construct: purchased SignalChem E10-122J2G
T3 sequence (P00533 25-1210 L792H): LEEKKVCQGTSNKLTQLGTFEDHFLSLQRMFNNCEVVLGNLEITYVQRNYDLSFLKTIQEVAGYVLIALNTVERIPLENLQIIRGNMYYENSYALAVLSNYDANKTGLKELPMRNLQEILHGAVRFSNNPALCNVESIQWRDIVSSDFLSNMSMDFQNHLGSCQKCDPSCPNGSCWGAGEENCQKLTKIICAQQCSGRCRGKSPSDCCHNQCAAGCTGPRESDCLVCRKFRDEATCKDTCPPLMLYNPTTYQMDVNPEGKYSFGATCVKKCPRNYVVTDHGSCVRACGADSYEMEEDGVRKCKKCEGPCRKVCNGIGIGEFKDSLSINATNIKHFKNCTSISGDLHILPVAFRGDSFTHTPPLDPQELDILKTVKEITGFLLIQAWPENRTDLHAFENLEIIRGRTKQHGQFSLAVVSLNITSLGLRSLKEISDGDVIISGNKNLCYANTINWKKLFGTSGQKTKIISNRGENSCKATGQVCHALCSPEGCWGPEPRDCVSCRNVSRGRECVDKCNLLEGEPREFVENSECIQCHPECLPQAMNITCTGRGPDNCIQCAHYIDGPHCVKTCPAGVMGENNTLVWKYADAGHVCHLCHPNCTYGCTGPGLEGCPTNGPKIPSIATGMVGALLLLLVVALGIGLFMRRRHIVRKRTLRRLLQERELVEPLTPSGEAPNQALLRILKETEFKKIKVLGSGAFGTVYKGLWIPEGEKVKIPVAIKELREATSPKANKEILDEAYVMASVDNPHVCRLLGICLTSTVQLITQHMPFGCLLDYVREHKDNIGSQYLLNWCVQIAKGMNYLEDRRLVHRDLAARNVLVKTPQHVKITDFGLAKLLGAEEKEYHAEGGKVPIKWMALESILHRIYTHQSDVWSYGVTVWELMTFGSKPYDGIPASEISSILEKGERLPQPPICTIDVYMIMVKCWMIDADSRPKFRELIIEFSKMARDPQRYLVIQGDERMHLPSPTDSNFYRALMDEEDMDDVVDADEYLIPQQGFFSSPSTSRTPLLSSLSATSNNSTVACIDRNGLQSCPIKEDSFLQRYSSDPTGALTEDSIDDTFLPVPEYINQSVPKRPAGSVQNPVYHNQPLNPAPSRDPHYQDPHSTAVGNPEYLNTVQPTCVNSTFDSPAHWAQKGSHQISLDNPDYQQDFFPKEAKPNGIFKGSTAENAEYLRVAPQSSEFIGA
Particulars: 1 mM ATP, 1.0 nM enzyme, room temperature. As to the method: as §1, §2, §3

In another experiment the target is T4, EGFR_G719S (Homo sapiens, UniProt P00533, G719S).
T4 construct: purchased SignalChem E10-12HG
Particulars: 1 mM ATP, 1.0 nM enzyme, room temperature. As to the method:
as §1, §2, §3

The target of another experiment is T5, EGFR WT (Homo sapiens, UniProt P00533).
T5 construct: purchased ThermoFisher PV3872
As to conditions: 1 mM ATP, 2.0 nM enzyme, room temperature. As for the experimental part: as §1, §2, §3

The target in the next experiment is T6, EGFR_d746-750 G724S (Homo sapiens, UniProt P00533, DEL746-750/G724S).
T6 construct: purchased SignalChem E10-122D3G
T6 sequence (P00533 with tags, fused parts or gaps G724S/DEL746-750): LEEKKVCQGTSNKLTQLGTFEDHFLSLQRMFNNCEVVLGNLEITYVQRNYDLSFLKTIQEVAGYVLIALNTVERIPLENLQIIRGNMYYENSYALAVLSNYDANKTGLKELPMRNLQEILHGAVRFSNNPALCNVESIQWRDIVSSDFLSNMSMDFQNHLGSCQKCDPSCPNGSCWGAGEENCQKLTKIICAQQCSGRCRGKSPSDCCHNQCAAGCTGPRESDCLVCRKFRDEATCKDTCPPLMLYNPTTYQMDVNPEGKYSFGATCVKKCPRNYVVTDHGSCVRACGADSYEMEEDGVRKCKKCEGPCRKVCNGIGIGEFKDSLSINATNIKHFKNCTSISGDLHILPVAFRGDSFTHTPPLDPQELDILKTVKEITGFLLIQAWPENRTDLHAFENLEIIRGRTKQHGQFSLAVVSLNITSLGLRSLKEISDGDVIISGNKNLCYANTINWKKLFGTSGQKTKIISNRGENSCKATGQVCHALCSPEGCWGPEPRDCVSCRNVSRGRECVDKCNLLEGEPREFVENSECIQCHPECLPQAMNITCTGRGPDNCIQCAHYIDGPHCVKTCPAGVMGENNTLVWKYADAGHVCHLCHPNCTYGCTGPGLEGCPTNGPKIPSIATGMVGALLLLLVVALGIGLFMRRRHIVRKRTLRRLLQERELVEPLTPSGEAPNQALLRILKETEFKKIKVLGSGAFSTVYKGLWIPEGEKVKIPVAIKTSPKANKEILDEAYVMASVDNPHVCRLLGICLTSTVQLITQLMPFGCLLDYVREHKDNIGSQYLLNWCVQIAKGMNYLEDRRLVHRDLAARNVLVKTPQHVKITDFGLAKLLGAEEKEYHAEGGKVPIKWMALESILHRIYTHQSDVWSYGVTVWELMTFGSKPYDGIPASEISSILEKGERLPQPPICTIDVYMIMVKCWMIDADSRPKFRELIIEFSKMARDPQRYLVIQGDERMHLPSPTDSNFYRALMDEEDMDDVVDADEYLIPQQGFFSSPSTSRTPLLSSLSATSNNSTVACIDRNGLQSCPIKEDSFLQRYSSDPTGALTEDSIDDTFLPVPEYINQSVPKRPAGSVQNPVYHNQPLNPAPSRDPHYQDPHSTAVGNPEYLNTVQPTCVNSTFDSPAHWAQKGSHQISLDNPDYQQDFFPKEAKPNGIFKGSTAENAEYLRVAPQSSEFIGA
Particulars: 1 mM ATP, 2.0 nM enzyme, room temperature. As to the method:
as §1, §2, §3

A further experiment concerns the target T7, EGFR_L747S (Homo sapiens, UniProt P00533, L747S).
T7 construct: purchased SignalChem E10-122Y2G
Particulars: 1 mM ATP, 0.5 nM enzyme, room temperature. As to the method: as §1, §2, §3

The target of another experiment is T8, EGFR_G719C (Homo sapiens, UniProt P00533, G719C).
T8 construct: purchased SignalChem E10-12FG
Particulars: 1 mM ATP, 5.0 nM enzyme, room temperature. As to the method: as §1, §2, §3

The structures appear in SMILES notation.

T1 sequence (P00533 with tags, fused parts or gaps DEL746-750/S768I): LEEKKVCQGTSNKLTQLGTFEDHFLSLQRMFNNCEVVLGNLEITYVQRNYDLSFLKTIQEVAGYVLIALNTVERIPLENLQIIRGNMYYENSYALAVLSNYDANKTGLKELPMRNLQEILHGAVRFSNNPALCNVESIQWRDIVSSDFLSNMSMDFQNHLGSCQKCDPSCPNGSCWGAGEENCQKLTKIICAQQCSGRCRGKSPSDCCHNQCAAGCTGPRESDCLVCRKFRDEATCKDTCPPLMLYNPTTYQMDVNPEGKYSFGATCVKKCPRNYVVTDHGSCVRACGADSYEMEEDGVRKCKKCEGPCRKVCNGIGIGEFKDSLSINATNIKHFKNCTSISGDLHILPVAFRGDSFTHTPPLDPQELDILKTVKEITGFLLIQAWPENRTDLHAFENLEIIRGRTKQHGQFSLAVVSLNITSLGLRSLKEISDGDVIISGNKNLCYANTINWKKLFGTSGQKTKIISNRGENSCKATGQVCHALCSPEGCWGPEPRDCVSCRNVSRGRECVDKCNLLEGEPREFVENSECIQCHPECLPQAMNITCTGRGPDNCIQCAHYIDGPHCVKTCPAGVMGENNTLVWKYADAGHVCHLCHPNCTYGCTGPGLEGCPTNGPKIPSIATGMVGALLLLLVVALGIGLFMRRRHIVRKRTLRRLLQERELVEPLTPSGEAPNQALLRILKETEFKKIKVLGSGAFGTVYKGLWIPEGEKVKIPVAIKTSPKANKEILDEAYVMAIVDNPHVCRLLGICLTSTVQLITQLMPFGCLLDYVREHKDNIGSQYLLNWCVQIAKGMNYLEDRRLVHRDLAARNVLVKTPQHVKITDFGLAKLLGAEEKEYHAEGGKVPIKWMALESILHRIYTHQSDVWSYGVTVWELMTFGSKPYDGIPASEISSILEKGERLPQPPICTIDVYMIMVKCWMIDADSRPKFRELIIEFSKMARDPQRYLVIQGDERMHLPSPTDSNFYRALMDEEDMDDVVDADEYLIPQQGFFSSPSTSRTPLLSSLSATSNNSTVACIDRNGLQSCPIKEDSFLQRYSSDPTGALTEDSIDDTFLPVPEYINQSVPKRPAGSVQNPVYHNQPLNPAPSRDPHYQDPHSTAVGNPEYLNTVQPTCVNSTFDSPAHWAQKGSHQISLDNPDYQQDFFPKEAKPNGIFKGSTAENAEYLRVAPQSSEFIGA
T7 sequence (P00533 25-1210 L747S): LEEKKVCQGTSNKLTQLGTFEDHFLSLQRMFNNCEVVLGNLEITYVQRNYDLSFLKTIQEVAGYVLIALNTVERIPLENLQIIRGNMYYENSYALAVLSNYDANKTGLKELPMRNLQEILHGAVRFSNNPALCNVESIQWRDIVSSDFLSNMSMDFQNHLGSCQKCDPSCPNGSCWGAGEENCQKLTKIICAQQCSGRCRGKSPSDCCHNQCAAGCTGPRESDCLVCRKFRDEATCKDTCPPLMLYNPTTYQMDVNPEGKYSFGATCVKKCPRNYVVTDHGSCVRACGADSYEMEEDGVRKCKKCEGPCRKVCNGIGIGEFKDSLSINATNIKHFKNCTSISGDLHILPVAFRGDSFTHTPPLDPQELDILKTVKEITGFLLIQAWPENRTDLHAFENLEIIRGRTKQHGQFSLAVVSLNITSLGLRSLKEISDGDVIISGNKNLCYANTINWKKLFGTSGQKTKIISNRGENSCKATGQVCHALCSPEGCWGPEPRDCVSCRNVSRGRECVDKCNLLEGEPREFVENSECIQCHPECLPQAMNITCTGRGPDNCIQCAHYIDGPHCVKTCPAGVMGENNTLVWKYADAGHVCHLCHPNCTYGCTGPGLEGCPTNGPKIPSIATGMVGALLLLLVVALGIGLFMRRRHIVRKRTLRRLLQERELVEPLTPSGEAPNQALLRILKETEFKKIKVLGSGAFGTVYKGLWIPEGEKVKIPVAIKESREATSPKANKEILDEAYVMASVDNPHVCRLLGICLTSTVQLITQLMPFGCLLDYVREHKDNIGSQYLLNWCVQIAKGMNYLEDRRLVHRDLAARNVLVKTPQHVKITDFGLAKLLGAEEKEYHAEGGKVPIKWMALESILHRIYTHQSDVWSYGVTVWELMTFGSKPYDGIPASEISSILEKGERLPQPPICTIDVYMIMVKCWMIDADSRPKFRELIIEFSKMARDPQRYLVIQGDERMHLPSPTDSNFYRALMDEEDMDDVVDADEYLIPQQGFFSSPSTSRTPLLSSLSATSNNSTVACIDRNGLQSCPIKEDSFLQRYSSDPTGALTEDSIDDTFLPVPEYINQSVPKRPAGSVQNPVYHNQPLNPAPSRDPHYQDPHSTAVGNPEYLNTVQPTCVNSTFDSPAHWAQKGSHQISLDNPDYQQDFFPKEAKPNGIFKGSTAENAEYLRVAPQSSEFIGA

With `C=CC(=O)Nc1cc(Nc2cc(N3OCC[C@@H]3c3cc(F)cc(F)c3)ncn2)c(OC)cc1N1CCC(N2CCN(C3CC3)CC2)CC1` [Compound I, N-[2-[4-(4-cyclopropyl-1-piperazinyl)-1-piperidinyl]-5-[[6-[(3R)-3-(3,5-difluorophenyl)-2-isoxazolidinyl]-4-pyrimidinyl]amino]-4-methoxyphenyl]-2-propenamide], the concentration for half-maximal inhibition (IC50) turned out to be 1 nM against EGFR_d746-750 S768I; 3.7 nM on EGFR_L718Q; 16 nM against EGFR_L792H; 0.9 nM at EGFR_G719S; 2.3 ± 1.1 nM against EGFR WT; 3.5 nM at EGFR_d746-750 G724S. For the same molecule, the IC50 turned out to be 1.5 nM at EGFR_L747S and 0.6 nM at EGFR_G719C.

What is called IC50 is the point on the concentration scale where inhibition reaches its midpoint.
